# Compound: Nc1nc2c(ncn2[C@@H]2O[C@H](COP(=O)(O)OP(=O)(O)OP(=O)(O)O)[C@@H](O)[C@H]2O)c(=O)[nH]1 [guanosine triphosphate]
# Assay: pEC50 of GTP-induced change in protein thermal stability (2D-TPP)
# Experimental: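 2D thermal proteome profiling in Jurkat crude lysate. Lysate was treated 10 min at room temperature with Na-GTP (0, 0.001, 0.01, 0.1, 0.5 mM), heated to 12 temperatures (42-63.9 °C) for 3 min, and soluble protein was quantified by TMT10 LC-MS/MS. pEC50 is the median over replicates of dose-response fits (FDR-controlled hits).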
# 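Wherever pEC50 of ATP-induced change in protein thermal stability (2D-TPP) is given: lysate dosed with Na-ATP at 0 0.005 0.05 0.5 and 2 mM.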
# Sequence of UniProt Q96S44 (Q96S44 whole entry): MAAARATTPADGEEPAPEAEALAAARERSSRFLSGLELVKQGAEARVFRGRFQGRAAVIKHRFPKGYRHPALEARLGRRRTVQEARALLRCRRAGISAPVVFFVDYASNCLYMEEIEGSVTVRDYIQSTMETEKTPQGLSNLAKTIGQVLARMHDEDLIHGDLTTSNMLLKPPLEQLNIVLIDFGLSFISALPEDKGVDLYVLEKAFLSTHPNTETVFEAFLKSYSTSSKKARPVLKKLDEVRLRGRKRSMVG
# Sequence of UniProt Q9BZX2 (Q9BZX2 whole entry): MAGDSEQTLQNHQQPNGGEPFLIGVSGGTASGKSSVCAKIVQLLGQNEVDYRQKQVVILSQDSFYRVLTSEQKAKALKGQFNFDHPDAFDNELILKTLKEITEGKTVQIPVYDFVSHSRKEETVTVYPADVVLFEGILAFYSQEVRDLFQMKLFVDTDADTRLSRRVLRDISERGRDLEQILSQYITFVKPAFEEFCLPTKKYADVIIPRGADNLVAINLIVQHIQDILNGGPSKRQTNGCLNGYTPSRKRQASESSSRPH
# Sequence of UniProt P61225 (P61225 whole entry): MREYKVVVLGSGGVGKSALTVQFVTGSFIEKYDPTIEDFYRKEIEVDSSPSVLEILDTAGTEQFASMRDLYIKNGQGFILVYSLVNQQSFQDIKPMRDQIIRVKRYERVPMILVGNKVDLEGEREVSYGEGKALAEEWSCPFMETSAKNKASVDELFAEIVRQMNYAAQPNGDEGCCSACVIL
# Sequence of UniProt Q9H078 (Q9H078 whole entry): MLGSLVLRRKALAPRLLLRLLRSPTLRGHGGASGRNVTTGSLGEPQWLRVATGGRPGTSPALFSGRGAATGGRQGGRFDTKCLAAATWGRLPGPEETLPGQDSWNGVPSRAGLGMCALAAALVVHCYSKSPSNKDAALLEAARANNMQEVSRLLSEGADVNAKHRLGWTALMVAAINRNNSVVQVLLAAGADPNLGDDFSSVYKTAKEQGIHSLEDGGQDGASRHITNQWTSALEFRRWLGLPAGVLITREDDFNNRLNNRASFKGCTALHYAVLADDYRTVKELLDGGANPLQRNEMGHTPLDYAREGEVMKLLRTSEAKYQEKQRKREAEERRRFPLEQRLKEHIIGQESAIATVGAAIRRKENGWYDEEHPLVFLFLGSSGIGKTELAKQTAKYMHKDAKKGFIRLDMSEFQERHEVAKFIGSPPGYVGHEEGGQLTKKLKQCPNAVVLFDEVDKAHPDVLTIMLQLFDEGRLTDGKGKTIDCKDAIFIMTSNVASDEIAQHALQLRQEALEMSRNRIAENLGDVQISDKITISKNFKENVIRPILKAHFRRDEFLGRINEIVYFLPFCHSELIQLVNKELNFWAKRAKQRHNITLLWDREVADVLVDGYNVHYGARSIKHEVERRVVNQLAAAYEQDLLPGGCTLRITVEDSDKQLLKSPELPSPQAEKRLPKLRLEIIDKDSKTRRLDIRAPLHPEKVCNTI
# Sequence of UniProt Q9Y5P6 (Q9Y5P6 whole entry): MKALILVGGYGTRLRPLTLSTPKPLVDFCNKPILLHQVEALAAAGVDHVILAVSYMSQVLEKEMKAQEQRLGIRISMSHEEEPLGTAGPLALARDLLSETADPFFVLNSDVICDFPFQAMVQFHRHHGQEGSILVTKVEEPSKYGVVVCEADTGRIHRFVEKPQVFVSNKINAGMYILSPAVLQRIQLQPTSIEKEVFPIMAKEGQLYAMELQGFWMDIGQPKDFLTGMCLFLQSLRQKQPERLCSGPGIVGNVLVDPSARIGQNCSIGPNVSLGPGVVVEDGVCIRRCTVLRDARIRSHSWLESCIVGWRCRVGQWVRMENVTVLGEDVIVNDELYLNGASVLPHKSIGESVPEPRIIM
# Sequence of UniProt Q16643 (Q16643 whole entry): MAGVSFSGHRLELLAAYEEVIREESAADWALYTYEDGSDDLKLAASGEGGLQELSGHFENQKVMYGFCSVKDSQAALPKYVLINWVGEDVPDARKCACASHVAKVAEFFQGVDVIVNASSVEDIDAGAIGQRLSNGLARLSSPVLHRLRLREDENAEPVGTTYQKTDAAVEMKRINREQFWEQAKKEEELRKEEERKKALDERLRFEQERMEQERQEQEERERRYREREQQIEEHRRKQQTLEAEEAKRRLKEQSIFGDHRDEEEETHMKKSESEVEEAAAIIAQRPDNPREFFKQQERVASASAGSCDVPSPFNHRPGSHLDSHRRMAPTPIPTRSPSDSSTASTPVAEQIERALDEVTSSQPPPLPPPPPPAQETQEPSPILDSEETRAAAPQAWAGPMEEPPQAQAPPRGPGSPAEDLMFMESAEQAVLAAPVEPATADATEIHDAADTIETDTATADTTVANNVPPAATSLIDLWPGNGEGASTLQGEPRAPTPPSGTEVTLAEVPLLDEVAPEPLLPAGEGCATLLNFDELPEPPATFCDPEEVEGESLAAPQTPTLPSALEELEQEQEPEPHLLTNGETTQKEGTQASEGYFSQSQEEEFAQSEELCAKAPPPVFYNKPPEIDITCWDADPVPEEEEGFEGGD
# Sequence of UniProt Q9Y5L0 (Q9Y5L0 whole entry): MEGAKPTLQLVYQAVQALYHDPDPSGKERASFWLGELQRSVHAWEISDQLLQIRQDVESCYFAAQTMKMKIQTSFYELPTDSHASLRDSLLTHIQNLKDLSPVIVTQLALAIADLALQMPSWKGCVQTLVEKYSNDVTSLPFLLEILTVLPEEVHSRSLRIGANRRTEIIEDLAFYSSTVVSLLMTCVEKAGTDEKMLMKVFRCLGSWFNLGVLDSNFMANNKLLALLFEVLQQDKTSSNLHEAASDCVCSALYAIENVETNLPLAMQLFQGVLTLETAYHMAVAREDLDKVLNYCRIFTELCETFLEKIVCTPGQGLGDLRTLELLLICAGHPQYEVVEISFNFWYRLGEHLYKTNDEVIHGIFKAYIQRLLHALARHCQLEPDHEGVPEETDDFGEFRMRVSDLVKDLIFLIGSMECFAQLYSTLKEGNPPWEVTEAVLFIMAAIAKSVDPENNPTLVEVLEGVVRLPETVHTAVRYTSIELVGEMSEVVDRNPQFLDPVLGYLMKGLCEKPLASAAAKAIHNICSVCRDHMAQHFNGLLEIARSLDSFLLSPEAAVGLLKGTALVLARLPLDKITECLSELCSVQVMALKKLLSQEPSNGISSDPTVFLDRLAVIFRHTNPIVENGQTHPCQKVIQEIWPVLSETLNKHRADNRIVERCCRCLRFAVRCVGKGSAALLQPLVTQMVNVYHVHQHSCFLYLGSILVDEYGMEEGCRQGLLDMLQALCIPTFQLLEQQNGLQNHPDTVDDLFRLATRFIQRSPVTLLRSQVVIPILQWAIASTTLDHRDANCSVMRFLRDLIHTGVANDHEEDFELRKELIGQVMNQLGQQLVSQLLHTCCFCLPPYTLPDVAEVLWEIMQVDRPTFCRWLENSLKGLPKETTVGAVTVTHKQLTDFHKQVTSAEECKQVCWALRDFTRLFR
# Sequence of UniProt P61106 (P61106 whole entry, looked up): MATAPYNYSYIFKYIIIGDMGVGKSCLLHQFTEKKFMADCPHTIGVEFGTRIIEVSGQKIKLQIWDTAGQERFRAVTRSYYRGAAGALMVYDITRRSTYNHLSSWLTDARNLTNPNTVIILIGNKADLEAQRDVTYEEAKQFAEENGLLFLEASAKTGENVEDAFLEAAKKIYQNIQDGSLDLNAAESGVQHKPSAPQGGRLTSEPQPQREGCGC
# Sequence of UniProt Q92878 (Q92878 whole entry): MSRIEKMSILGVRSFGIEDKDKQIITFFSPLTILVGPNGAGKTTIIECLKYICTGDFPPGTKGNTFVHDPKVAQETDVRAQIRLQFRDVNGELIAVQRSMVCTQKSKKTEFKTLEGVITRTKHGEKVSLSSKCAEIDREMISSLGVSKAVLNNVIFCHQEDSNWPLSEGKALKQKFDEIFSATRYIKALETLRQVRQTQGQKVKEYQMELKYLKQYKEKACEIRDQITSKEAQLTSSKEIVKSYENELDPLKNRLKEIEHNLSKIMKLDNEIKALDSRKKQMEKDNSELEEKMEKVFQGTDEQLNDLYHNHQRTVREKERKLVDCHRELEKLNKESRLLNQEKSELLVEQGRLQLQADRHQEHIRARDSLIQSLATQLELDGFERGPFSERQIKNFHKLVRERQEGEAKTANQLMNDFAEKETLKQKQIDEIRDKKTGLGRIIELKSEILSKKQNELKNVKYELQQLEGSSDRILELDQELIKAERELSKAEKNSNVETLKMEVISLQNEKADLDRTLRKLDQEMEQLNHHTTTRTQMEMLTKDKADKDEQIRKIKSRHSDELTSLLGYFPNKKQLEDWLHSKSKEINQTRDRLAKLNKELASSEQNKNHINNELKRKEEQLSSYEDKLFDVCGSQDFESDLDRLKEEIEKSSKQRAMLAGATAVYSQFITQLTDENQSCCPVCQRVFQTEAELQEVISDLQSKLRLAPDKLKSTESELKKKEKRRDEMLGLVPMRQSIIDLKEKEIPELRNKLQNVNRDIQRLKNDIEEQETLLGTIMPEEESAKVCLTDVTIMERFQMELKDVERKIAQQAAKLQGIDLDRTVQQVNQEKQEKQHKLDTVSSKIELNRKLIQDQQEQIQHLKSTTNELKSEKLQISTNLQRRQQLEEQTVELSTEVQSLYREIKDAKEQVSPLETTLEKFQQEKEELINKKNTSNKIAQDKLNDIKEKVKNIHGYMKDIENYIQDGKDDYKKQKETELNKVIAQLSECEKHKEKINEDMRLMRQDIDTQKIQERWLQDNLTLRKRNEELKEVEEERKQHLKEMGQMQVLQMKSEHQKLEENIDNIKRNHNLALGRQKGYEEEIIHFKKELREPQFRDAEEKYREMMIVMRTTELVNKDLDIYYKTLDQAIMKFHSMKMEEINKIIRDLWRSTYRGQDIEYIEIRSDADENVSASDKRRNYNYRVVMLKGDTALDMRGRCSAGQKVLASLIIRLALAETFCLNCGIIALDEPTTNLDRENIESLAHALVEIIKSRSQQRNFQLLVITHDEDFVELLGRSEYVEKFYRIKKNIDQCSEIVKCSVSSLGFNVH
row,Target,pEC50
1,TP53RK (effect direction: stabilized) (UniProt Q96S44),3.58
2,UniProt P61106 (effect direction: stabilized),4.33
3,RAD50 (effect direction: stabilized) (UniProt Q92878),3.49
4,UniProt P61225 (effect direction: stabilized),4.05
5,PRKCB (effect direction: stabilized) (UniProt P05771),3.86
6,TNPO3 (effect direction: stabilized) (UniProt Q9Y5L0),3.76
7,UCK2 (effect direction: stabilized) (UniProt Q9BZX2),3.9
8,GMPPB (effect direction: stabilized) (UniProt Q9Y5P6),3.82
9,THUMPD1 (effect direction: stabilized) (UniProt Q9NXG2),3.86
10,CLPB (effect direction: stabilized) (UniProt Q9H078),4.19
11,RAB33A (effect direction: stabilized) (UniProt Q14088),3.89
12,DBN1 (effect direction: destabilized) (UniProt Q16643),3.79
13,GBP1 (effect direction: stabilized) (UniProt P32455),3.82
14,UniProt P51149 (effect direction: stabilized),3.9
15,RAB12 (effect direction: stabilized) (UniProt Q6IQ22),3.93
16,GNAO1 (effect direction: stabilized) (UniProt P09471),4.24
17,UniProt Q9Y3L5 (effect direction: stabilized),3.83
18,EEFSEC (effect direction: stabilized) (UniProt P57772),3.92
19,MFN1 (effect direction: stabilized) (UniProt Q8IWA4),3.96
20,UniProt O14966 (effect direction: stabilized),4.27
21,SAR1A (effect direction: stabilized) (UniProt Q9NR31),3.87
22,RAB18 (effect direction: stabilized) (UniProt Q9NP72),3.65
23,OPA1 (effect direction: stabilized) (UniProt O60313),3.71

row,Target,pEC50
1,SACS (effect direction: stabilized) (UniProt Q9NZJ4),3.82
2,ALG1 (effect direction: stabilized) (UniProt Q9BT22),3.56
3,RFC5 (effect direction: stabilized) (UniProt P40937),3.8
4,UniProt P78527 (effect direction: stabilized),3.93
5,ACSF3 (effect direction: destabilized) (UniProt Q4G176),3.56
6,SAFB (effect direction: destabilized) (UniProt Q15424),4.81
7,GNAQ (effect direction: stabilized) (UniProt P50148),3.6
8,UCK1 (effect direction: stabilized) (UniProt Q9HA47),< 3.3
9,UniProt Q5JTY5 (effect direction: stabilized),4.22
10,NRAS (effect direction: stabilized) (UniProt P01111),4.01
11,UniProt P62805 (effect direction: stabilized),3.69
12,FPGT (effect direction: stabilized) (UniProt O14772),3.91
13,UniProt P84095 (effect direction: stabilized),3.83
14,DHX30 (effect direction: destabilized) (UniProt Q7L2E3),3.92
15,UQCRC2 (effect direction: stabilized) (UniProt P22695),4.3
16,RAB1B (effect direction: stabilized) (UniProt Q9H0U4),3.88
17,UniProt P61020 (effect direction: stabilized),4.67
18,UniProt P62330 (effect direction: stabilized),3.98
19,SRP54 (effect direction: stabilized) (UniProt P61011),3.98
20,UniProt P84103 (effect direction: stabilized),3.94
21,RALB (effect direction: stabilized) (UniProt P11234),4.14
22,UniProt O95747 (effect direction: stabilized),3.79
23,RAB5A (effect direction: stabilized) (UniProt P20339),3.97

row,Target,pEC50
1,CPSF6 (effect direction: stabilized) (UniProt Q16630),< 3.3
2,RALA (effect direction: stabilized) (UniProt P11233),4.33
3,RAB37 (effect direction: stabilized) (UniProt Q96AX2),3.8
4,DHX37 (effect direction: stabilized) (UniProt Q8IY37),3.8
5,DDX1 (effect direction: stabilized) (UniProt Q92499),4.57
6,UniProt A3KMH1 (effect direction: stabilized),3.98
7,DOCK2 (effect direction: stabilized) (UniProt Q92608),3.81
8,EIF5B (effect direction: stabilized) (UniProt O60841),3.81
9,COASY (effect direction: stabilized) (UniProt Q13057),4.03
10,UniProt P84085 (effect direction: stabilized),4.13
11,UniProt P61221 (effect direction: stabilized),4.18
12,ATAD3A (effect direction: stabilized) (UniProt Q9NVI7),4.22
13,GPN1 (effect direction: stabilized) (UniProt Q9HCN4),4.95
14,PANK3 (effect direction: stabilized) (UniProt Q9H999),3.41
15,ETNK1 (effect direction: stabilized) (UniProt Q9HBU6),4.21
16,CPT1A (effect direction: stabilized) (UniProt P50416),4.62
17,TUBA1A (effect direction: stabilized) (UniProt Q71U36),3.4
18,RNGTT (effect direction: stabilized) (UniProt O60942),4.39
19,UniProt Q9NZ01 (effect direction: stabilized),3.66
20,UniProt O75582 (effect direction: stabilized),4.16
21,SAFB2 (effect direction: destabilized) (UniProt Q14151),3.34
22,UniProt P08134 (effect direction: stabilized),4.43
23,HBS1L (effect direction: stabilized) (UniProt Q9Y450),4.21

# Compound: Nc1ncnc2c1ncn2[C@@H]1O[C@H](COP(=O)(O)OP(=O)(O)OP(=O)(O)O)[C@@H](O)[C@H]1O [adenosine triphosphate]
# Assay: pEC50 of ATP-induced change in protein thermal stability (2D-TPP)
# In short: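 Jurkat crude lysate was treated for 10 min at room temperature with five concentrations including vehicle, heated to 12 temperatures (42–63.9 °C) for 3 min, and given NP40 and benzonase (60 min, 4 °C). After ultracentrifugation, soluble protein was quantified by TMT LC-MS/MS, with fold changes against vehicle per temperature, median-normalised. pEC50 comes from dose-response fits per replicate over adjacent temperature pairs, with hits called by permutation-based false discovery rate control. Three independent experiments.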
row,Target,pEC50
1,TP53RK (effect direction: stabilized) (UniProt Q96S44),3.46
2,UniProt P61106 (effect direction: stabilized),3.66
3,RAD50 (effect direction: stabilized) (UniProt Q92878),3.37
4,UniProt P61225 (effect direction: stabilized),3.48
5,PRKCB (effect direction: stabilized) (UniProt P05771),3.44
6,TNPO3 (effect direction: stabilized) (UniProt Q9Y5L0),3.08
7,UCK2 (effect direction: stabilized) (UniProt Q9BZX2),3.28
8,GMPPB (effect direction: stabilized) (UniProt Q9Y5P6),3.2
9,THUMPD1 (effect direction: stabilized) (UniProt Q9NXG2),3.08
10,CLPB (effect direction: stabilized) (UniProt Q9H078),4.02
11,RAB33A (effect direction: stabilized) (UniProt Q14088),3.39
12,DBN1 (effect direction: destabilized) (UniProt Q16643),3.27
